{
  "source": "patent US20260071239A1",
  "about": "“COMPOSITIONS AND METHODS FOR IMPROVED CELL CULTURE EFFICIENCY” (Amyris, Inc., priority 2022, published 2026)",
  "system": "host cells",
  "assay": "Inhibition of host cells by myrcene during fermentation",
  "type": "cell-based",
  "conditions": "host cells in fermentation; read-out: IC50 (inhibitory to host cells)",
  "data": [
    {"smiles": "C=CC(=C)CCC=C(C)C", "note": "[Myrcene, myrcene]", "values": [
      {"measurement": "IC50", "result": "50 to 100", "unit": "µg/mL"}
    ]}
  ]
}
